According to US20210161842A1, “ABSCISIC ACID FOR THE TREATMENT OF SKIN DISEASES” (priority 2018, published 2021):

How the values were obtained:
[1] = tested on: interleukine-8 (IL-8) in THP-1; test: IL-8 levels (ELISA) in THP-1 monocytes inflamed with IL-17 and LPS; assay type: cell-based, human; settings: IL-17 3 ng/ml + LPS 10 μg/ml 6 hours, then 24 hours; lysate 200, 20, 1 and 0.1 μg/ml (all doses); dexamethasone 10 μM
Protocol: (§1) In human monocytes line THP-1 (derived from patients with acute monocytic leukemia) inflammation was induces with IL-17 (3 ng/ml of culture) and lipopolysaccharide (LPS; 10 μg/ml) for 6 hours. After that different doses of the C. longa callus lysate were added (200 μg/ml, 20 μg/ml, 1 μg/ml and 0.1 μg/ml) for 24 hours. The assay was performed in 96-well plates. Tumoral necrosis factor alpha (TNF-α) and interleukine-8 (IL-8) levels were quantified by ELISA (fluorimetry, BD OpEIA, USA). One control was an assay with only the inflammatory agents at the same concentration to induce inflammation. Another control was were dexamethasone (10 μM)+Il-17/LPS.

[2] = tested on: lesional skin biopsies from atopic dermatitis patients; test: Inflammatory marker mRNA in full-thickness lesional skin biopsies of atopic dermatitis patients (ex vivo, RT-PCR); assay type: cell-based, human; settings: patient with atopic dermatitis plaque; 8 days at 37° C.; ABA 2 μL/ml; dexamethasone as control
Protocol: (§2) In skin biopsies of patients with plaque psoriasis and from patients with atopic dermatitis, it was determined the expression of several inflammatory markers (Interleukin 23A (IL-23A), C-X-C motif chemokine 10 (CXCL10), Interleukin 8 (IL-8), Interleukin 20 (IL-20), Intercellular Adhesion Molecule 1 (ICAM-1), LNC2, DEF-4, Keratin 16 (K-16), Interferon gamma (IFNg) and Interleukin 17A (IL-17A) using commercially available PCR tools for their determinations (RT-PCR by RNeasy Fibrous Tissue Mini kit and cDNA Archive kit, Sigma, ABlprism 7900HT and TaqMan probes). As a control, dexamethasone was used.
(§3) Full-thickness lesional skin biopsies from untreated atopic dermatitis and psoriasis patients were incubated in KBM medium supplemented with Ca2Cl for 8 days at 37° C., conditions that preserve human skin lesional in vitro. The different culture conditions were media, ABA (2 μL/ml (+)-(S)-cis,trans-abscisic acid). Medium was changed every 2-3 days. After incubation biopsies were cryopreserved in OCT at −80 until total mRNA was extracted with miRNeasy kit (Qiagen) according to manufacturer's protocol. RNA quality and quantity were checked using Nanodrop. RNA was conserved in RNase free water at −80° C. until analysis. RNA was converted to cDNA using the HighCapacity cDNA Reverse Transcription Kits (Applied Biosystems). Quantitative PCR was performed using TaqMan PreAmp Master Mix Kit (Applied Bioscience) and the TaqMan Gene Expression Master Mix (Applied Bioscience) following the manufacturers' protocols. Gene expression was normalized to the house-keeping gene Glyceraldehyde 3-phosphate dehydrogenase (GADPH) and normalized for each condition as 1,8e (Ct GADPH-Ct target gene) ×10000. […]
(§4) Patients from which biopsies were obtained included 5 psoriatic cases and 3 atopic dermatitis cases.

[3] = tested on: lesional skin biopsies from psoriasis patients; test: Inflammatory marker mRNA in full-thickness lesional skin biopsies of psoriasis patients (ex vivo, RT-PCR); assay type: cell-based, human; settings: patient with psoriatic plaque; 8 days at 37° C.; ABA 2 μL/ml; dexamethasone as control
Protocol: as §2, §3
This cell culture lysate was a callus cell lysate and it was used at a final concentration of 20 μg/ml of media (KBM medium supplemented with Ca2Cl as in the assay with ABA alone). As positive or comparative control, dexamethasone (1 μM in the culture) was used.
as §4

[4] = tested on: Tumoral necrosis factor alpha (TNF-α) in THP-1; test: TNF-α levels (ELISA) in THP-1 monocytes inflamed with IL-17 and LPS; assay type: cell-based, human; settings: IL-17 3 ng/ml + LPS 10 μg/ml 6 hours, then 24 hours; lysate 200, 20, 1 and 0.1 μg/ml (all doses); dexamethasone 10 μM
Protocol: as §1

[5] = tested on: Pseudomonas aeruginosa CECT 116; test: cfu in P. aeruginosa culture (bacteriostatic/bactericide effect); assay type: cell-based; settings: methyl jasmonate alone
Protocol: (§5) In this example several concentrations of ABA ((+)-(S)-cis,trans-abscisic acid (synonym of (S)-5-(1-hydroxy-2,6,6-trimethyl-4-oxo-2-cyclohexen-1-yl)-3-methyl-(2Z,4E)-pentadienoic acid)) (60 μg/ml, 30 μg/ml, 15 μg/ml, 5 μg/ml) were tested in a culture of P. acnes. Different amounts of the Morinda citrifolia cell lysate disclosed in Example 6 below were also tested in the same conditions (60%, 30%, 10%, 1%, 0.5%) by weight of cell lysate in the P. acnes culture. […] The same protocol was followed with a culture of S. aureus and with a culture of M. furfur. Data are shown in next Tables 1.1 to 1.6, where bacteriostatic and bactericide concentrations are listed. Underlined concentrations are the considered bacteriostatic or fungistatic amounts and that they avoid biofilm formation.
S. aureus, P. aeruginosa, P. acnes, and M. furfur subcultures were carried out from the stock by streaking onto determined medium and incubated according to the conditions specified for each of the microorganisms according to standard procedures and as indicated below: […]
Inventors also tested the effect of methyl jasmonate in P. acnes, S. aureus, M. furfur and P. aeruginosa. […] A bactericide effect was detected at 60% w/w.

[6] = tested on: Malassezia furfur ATCC 14521; test: cfu in M. furfur culture 24 hours after inoculum (fungistatic/fungicide effect); assay type: cell-based; settings: inoc. day 420000, control 1470000
Protocol: as §5
(§6) S. aureus, P. aeruginosa, P. acnes, and M. furfur subcultures were carried out from the stock by streaking onto determined medium and incubated according to the conditions specified for each of the microorganisms according to standard procedures and as indicated below:
(§7) Further it was tested a composition comprising 30% of Morinda citrifolia cell lysate and 30×10^−4% of abscisic acid ((+)-(S)-cis,trans-abscisic acid), glycerine and preservatives (q.s. 100%) in cultures of P. acnes, S. aureus, P. aeruginosa and M. furfur. The composition was used in the microbial culture at 5% and at 10% of the culture. […]

[7] = tested on: Epidermophytum floccosum DSM 10709; test: E. floccosum biofilm on glass coupons (and planktonic growth in suspension); assay type: cell-based; settings: ABA 60 μg/ml; inoc. day 96667, control 374333
Protocol: (§8) Generation of representative biofilms on borosilicate glass coupons (12.7 mm diameter and a thickness of 3.7 mm) by immersion of the coupons in a suspension of each microorganism with culture medium and the compounds of interest was tested. Evaluation of the antibiofilm properties and study of adhesion, growth and viability of biofilms on the coupons was analyzed by fluorescence staining technique and visualization of live/dead microbial was done by Laser Scanning Confocal Microscopy. The sampling and analysis of coupons to determine biofilm population density was recorded as colony-forming units (cfu) per coupon. In parallel, planktonic cells quantification in suspension was also determined.
(§9) For the determination of biofilm populations the microbial population adhered to the coupon surface were quantified by dilution and plating after biofilm disaggregation process by sonication and vortex cycles. The planktonic cells (suspension) were determined by dilution and plating. The controls were, respectively the cells on coupons or in suspension after 5 days without any treatment.
(§10) Following procedure as disclosed in Example 3, particular compositions comprising ABA ((+)-(S)-cis,trans-abscisic acid) and cell lysate of a plant cell culture of Morinda citrifolia were also tested in an assay on glass coupons that also served as example of biofilm formation on abiotic surfaces. […]

[8] = tested on: Candida albicans DSM 3454; test: cfu in C. albicans culture (fungistatic/fungicide effect); assay type: cell-based; settings: ABA 60 μg/ml; inoc. day 264000, control 456500
Protocol: (§11) Following the same scheme and procedure as in Examples 1-3 above, ABA 8((+)-(S)-cis,trans-abscisic acid)) and combinations of ABA with cell culture lysates or methyl jasmonate were tested on several microorganisms forming biofilms. As before, underlined concentrations are the considered bacteriostatic or fungistatic amounts and that they avoid biofilm formation.
(§12) Biofilm generation conditions and medium for the growth of the bacteria were those recommended by the supplier of each microorganism.

[9] = tested on: Propionibacterium acnes DSM 1897; test: cfu in P. acnes culture 24 hours after inoculum (bacteriostatic/bactericide effect); assay type: cell-based; settings: inoc. day 320000, control 1490000
Protocol: as §5, §6, §7

[10] = tested on: Staphylococcus aureus ATCC 6538; test: cfu in S. aureus culture 24 hours after inoculum (bacteriostatic/bactericide effect); assay type: cell-based; settings: ABA 60 μg/ml, inoc. day 520000, control 3310000
Protocol: as §5, §6, §7

[11] = tested on: Streptococcus mutans DSM 20523; test: cfu in S. mutans culture (bacteriostatic/bactericide effect); assay type: cell-based; settings: inoc. day 200000, control 109000 × 10
Protocol: as §11, §12

[12] = tested on: Epidermophytum floccosum DSM 10709; test: cfu in E. floccosum culture (fungistatic effect); assay type: cell-based; settings: ABA 60 μg/ml; inoc. day 136000, control 587500
Protocol: as §11, §12

[13] = tested on: Candida albicans DSM 3454; test: C. albicans biofilm on glass coupons (and planktonic growth in suspension); assay type: cell-based; settings: ABA 60 μg/ml; inoc. day 184000, control 460000
Protocol: as §8, §9, §10

Compound | CCL13 mRNA, % of inhibition vs Media (normalized) [2] | CCL17 mRNA, % of inhibition vs Media (normalized) [2] | CCL18 mRNA, % of inhibition vs Media (normalized) [2] | CCL26 mRNA, % of inhibition vs Media (normalized) [2] | FLG mRNA, % of inhibition vs Media (normalized) [2] | IFNg mRNA, % of inhibition vs Media (normalized) [2] | IL-13 mRNA, % of inhibition vs Media (normalized) [2] | K16 mRNA, % of inhibition vs Media (normalized) [2] | LOR mRNA, % of inhibition vs Media (normalized) [2] | CXCL10 mRNA, % of inhibition vs Media (normalized) [3] | DEF-4 mRNA, % of inhibition vs Media (normalized) [3] | ICAM-1 mRNA, % of inhibition vs Media (normalized) [3] | IFNg mRNA, % of inhibition vs Media (normalized) [3] | IL-8 mRNA, % of inhibition vs Media (normalized) [3] | IL-17A mRNA, % of inhibition vs Media (normalized) [3] | IL-20 mRNA, % of inhibition vs Media (normalized) [3] | K-16 mRNA, % of inhibition vs Media (normalized) [3] | LNC2 mRNA, % of inhibition vs Media (normalized) [3] | also measured
C[C@@H]1C[C@H]2[C@@H]3CCC4=CC(=O)C=C[C@]4(C)[C@@]3(F)[C@@H](O)C[C@]2(C)[C@@]1(O)C(=O)CO [dexamethasone, reference compound] | 28.4% | −81.4% | −9.1% | −34.0% | 270.4% | −100.0% | −100.0% | −39.8% | 189.2% | 8.7% | −15.7% | 17.1% | 72.7% | −70.1% | 116.9% | 5.5% | 27.8% | 96.3% | IL-8 levels in relation to inflamed cells [1]: −33%; TNF-α levels in relation to inflamed cells [4]: −56%
CC/C=C\CC1C(=O)CCC1CC(=O)OC (centres unmarked) [methyl jasmonate] | – | – | – | – | – | – | – | – | – | – | – | – | – | – | – | – | – | – | percentage by weight in the culture media with bactericide effect [5]: 60 % w/w
(+)-(S)-cis,trans-abscisic acid [ABA] | −59.2% | −70.1% | −72.9% | −44.2% | 8.3% | 9.2% | −79.0% | −69.1% | −45.5% | 140.1% | −64.8% | −40.6% | −10.7% | −71.5% | 9.3% | −27.8% | 24.9% | −45.7% | CFU ([6]; ABA 30 μg/ml): 529000 CFU; CFU ([6]; ABA 60(*) μg/ml, (*)considered fungicide): 256000 CFU; CFU on coupons [7]: 243667 CFU; CFU [8]: 367500 CFU; CFU ([9]; ABA 30 μg/ml): 158001 CFU; CFU ([9]; ABA 60(*) μg/ml, (*)concentration considered bactericide): 100000 CFU; CFU [10]: 585000 CFU; CFU ([11]; ABA 50 μg/ml): 289500 CFU; CFU ([11]; ABA 60 μg/ml): 268000 CFU; CFU [12]: 287200 CFU; CFU on coupons [13]: 360000 CFU
